Common to all, as to assay: NCI anticancer screen, dose series, 48 h
Assay [1] relates to RXF 393 renal.
For assay [2], the system named is SK-MEL-5 melanoma.
The test system of assay [3] is NCI-H522 lung.
Assay [4] has as its system UO-31 renal.
In assay [5] the test system is KM12 colon.
For assay [6], the system named is NCI-H460 lung.
In assay [7] the test system is UACC-257 melanoma.
The subject of assay [8] is DU-145 prostate.
Assay [9] has as its system NCI-H23 lung.
Assay [10] concerns OVCAR-8 ovarian.

“And” between values parts separate entries of the source, which are not always exact repeats. Equal values may be shown once.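 Briefly, cells in 96-well plates were exposed to five compound concentrations for 48 h, and endpoints were estimated by linear interpolation. Here, GI50 denotes the concentration required for 50% inhibition of growth. TGI marks complete inhibition of growth.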

As for `Cn1nnc2c(C(N)=O)ncn2c1=O`, the TGI in assay [1], in [2], in assay [3], in assay [4], in assay [5] and in assay [6] was over 100 µM in each case. The TGI in assay [7], in [8], in assay [9] and in [10] was over 100 µM each time.

In the case of `COc1cc(/C=C/[N+](=O)[O-])cc(OC)c1OC`, the GI50 in [1] was 1.47 µM; in assay [2], 1.55 µM; in [3] it was 1.79 µM; in assay [4], 2.05 µM; in assay [5], 3.68 µM; in assay [6], 3.36 µM. The GI50 in assay [7] was 2.46 µM; in assay [8], 2.69 µM; in assay [9], 2.41 µM; in assay [10] it was 3.04 µM. Also, the TGI is 2.97 µM in assay [1]; 3 µM in assay [2]; 3.57 µM in [3]; 3.91 µM in assay [4]; 12.3 µM in [5]; 12.4 µM in assay [6]. Also, the TGI in assay [7] was 9.83 µM; in [8], 6.31 µM; in assay [9], 6.44 µM; in assay [10] it was 12.1 µM.

On to `Cc1c2ccncc2c(C)c2c1c1cc(CO)ccc1n2C`, for which the GI50 is 0.41 µM in [1]; 1.08 µM in assay [2]; 0.661 µM in [3]; 0.304 µM in assay [4]; 0.492 µM in assay [5]; 0.243 µM in [6]. For the same compound, the GI50 in assay [8] is 0.653 µM; in [9] it was 0.429 µM; in assay [10], 0.449 µM. Further, the TGI in assay [1] came out at 1.7 µM; in assay [2] it was 2.7 µM; in [3], 3.81 µM; in [4], 3.96 µM; in assay [5], 20 µM; in assay [6], 1.1 µM. Besides, the TGI in assay [8] came to 6.02 µM; in [9], 2.66 µM; in assay [10] it was 10.1 µM.

As to `CCN(CC)C(=S)SSC(=S)N(CC)CC`, the GI50 is 15.8 µM and 17.3 µM in assay [1]; 16.6 µM and 14.6 µM in assay [2]; 11.6 µM and 18.3 µM in assay [3]; 15.6 µM and 19.7 µM in assay [4]; 14.4 µM and 13.7 µM in assay [5]; 23.8 µM and 17.4 µM in [6]. Also, the GI50 is 35.4 µM and 34.3 µM in [7]; 24.5 µM and 31.7 µM in assay [8]; 23 µM in [9]; 18.8 µM and 15.8 µM in [10]. The TGI is 32.4 µM and 32.9 µM in assay [1]; 39.9 µM and 33.5 µM in [2]; 27.9 µM and 38.4 µM in assay [3]; 31.9 µM and 49 µM in [4]; 30.7 µM and 28.2 µM in [5]; 84.2 µM and 66.4 µM in assay [6]. In addition, the TGI in assay [7] was > 88.2 µM and 148 µM; in assay [8], > 59.8 µM and 133 µM; in [9] it was > 76.7 µM and 70.1 µM; in [10] it was 50.7 µM and 33.5 µM.

Take `CCN1C(=O)N(CC)C2C1NN=c1s/c(=C\c3ccc[nH]3)c(=O)n12` (centres undefined): the GI50 in assay [1] is 0.286 µM; in [2], 0.309 µM; in assay [3] it was 0.244 µM; in assay [4], 0.719 µM; in assay [5], 0.286 µM; in assay [6], 0.36 µM. Besides, the GI50 was over 100 µM in [7], 0.496 µM in assay [8], 1.34 µM in assay [9] and 0.85 µM in assay [10]. Also, the TGI is 2.19 µM in assay [1]; over 41.5 µM in [2]; 8.34 µM in assay [3]; over 100 µM in assay [4]; over 45 µM in assay [5]; over 41.8 µM in assay [6]. The TGI in assay [7], in assay [8], in [9] and in [10] was over 100 µM each time.

Consider `O=c1c(O)cccn1CCCN(CCCn1cccc(O)c1=O)CCn1cccc(O)c1=O`, for which the GI50 is 1.86 µM in assay [1]; 2.67 µM in assay [2]; 7.35 µM in assay [3]; 7.6 µM in assay [4]; 3.12 µM in assay [5]; 2.36 µM in [6]. For the same compound, the GI50 in [7] was 3.42 µM; in assay [8], 20.1 µM; in [9], 21.1 µM; in assay [10], 2.26 µM. Also, the TGI in assay [1] is 9.83 µM; in assay [2], over 100 µM; in assay [3], over 100 µM; in [4], over 100 µM; in assay [5], over 100 µM; in assay [6], over 100 µM. Further, the TGI in assay [7] is 22.4 µM; in assay [8], over 100 µM; in assay [9], over 100 µM; in assay [10], over 100 µM.

`C[C@@H]1COCCN1c1cc(-c2ccnn2C)c2ccnc(-c3ccn[nH]3)c2n1`: the GI50 in assay [1] was 0.0236 µM and 0.0851 µM; in [2], 0.222 µM and 0.286 µM; in assay [3], 0.172 µM and 0.528 µM; in [4], 0.0741 µM and 0.152 µM; in assay [5] it was 0.176 µM and 0.171 µM; in assay [6] it was 0.0561 µM and 0.128 µM. Also, the GI50 is 0.264 µM and 0.721 µM in [7]; 0.0992 µM and 0.202 µM in assay [8]; 0.0303 µM and 0.075 µM in [9]; 0.17 µM and 0.415 µM in assay [10]. For the same compound, the TGI in assay [1] was 0.0776 µM and 0.497 µM; in [2], 0.766 µM and 2.52 µM; in assay [4], 0.792 µM and 1.92 µM; in assay [5], over 100 µM; in assay [7] it was 2.81 µM and 6.9 µM; in [8] it was over 100 µM.

As to `Nc1ncccc1-c1nc2ccc(-c3ccccc3)nc2n1-c1ccc(C2(N)CCC2)cc1`, the GI50 in assay [1] is 0.214 µM; in [2], 1.36 µM; in assay [3], 1.53 µM; in assay [4], 0.278 µM; in assay [5] it was 1.78 µM; in [6], 0.333 µM. The GI50 is 1.28 µM in assay [7], 2.98 µM in assay [8], 5.19 µM in [9] and 2.06 µM in assay [10]. Further, the TGI in assay [1] was 1.63 µM; in assay [2], 2.67 µM; in assay [3] it was 3.47 µM; in assay [4], 2.03 µM; in assay [5], 6.93 µM; in [6], 2.99 µM. Besides, the TGI turned out to be 2.73 µM in assay [7], 15 µM in assay [8], 21.5 µM in assay [9] and 6.24 µM in [10].

Turning to `C=C1CC[C@@H]2[C@](C)(COC(C)=O)[C@H](OC(C)=O)CC[C@@]2(C)[C@@H]1CC(Nc1ccc(S(=O)(=O)Nc2nccs2)cc1)C1=CCOC1=O` (some centres undefined), the GI50 in assay [1] is 2.36 µM; in [2] it was 4.79 µM; in [3] it was 1.72 µM; in assay [4] it was 4.07 µM; in assay [5], 7.58 µM; in assay [6], 10.7 µM. Also, the GI50 is 2.55 µM in assay [7], 4.47 µM in [8], 10 µM in assay [9] and 3.14 µM in [10]. The TGI in assay [1] came out at 4.74 µM; in assay [2] it was 17.1 µM; in assay [3] it was 4.32 µM; in assay [4], 16.1 µM; in assay [5], 21.7 µM; in assay [6] it was 25.3 µM. The TGI in assay [7] was found to be 5.61 µM; in assay [8], 15.8 µM; in assay [9], 24.8 µM; in assay [10], 10.8 µM.

On to `Nc1n[nH]c(N)c1N=Nc1ccc(O)cc1`, for which the GI50 in assay [1] is 18.4 µM; in assay [2] it was 13.9 µM; in [3], 24.3 µM; in assay [4], 13.7 µM; in assay [5], 17.2 µM; in assay [6] it was 25.1 µM. Besides, the GI50 in [7] was 24.4 µM; in [8] it was 17 µM; in assay [9], 19.1 µM; in assay [10] it was 18 µM. Moreover, the TGI was 43.9 µM in assay [1]; 30.9 µM in [2]; over 100 µM in assay [3]; 66.3 µM in assay [4]; 74.1 µM in [5]; 97.2 µM in assay [6]. In addition, the TGI is 85.1 µM in assay [7], 62.5 µM in assay [8], 62.3 µM in assay [9] and over 100 µM in assay [10].

Consider `O=c1cccc(C#CC#CCCCO)o1`, for which the GI50 in [1] was 3.27 µM; in [2] it was 12.3 µM; in assay [3] it was 3.55 µM; in [4] it was 2.17 µM; in [5], 0.834 µM; in [6] it was 9.55 µM. In addition, the GI50 in assay [7] is 3.48 µM; in assay [8], 2.37 µM; in assay [9] it was 4.17 µM; in assay [10], 4.33 µM. The TGI is 11.5 µM in assay [1]; 27.3 µM in assay [2]; over 32 µM in assay [3]; over 100 µM in [4]; 9.26 µM in assay [5]; 33.6 µM in assay [6]. The TGI in [7] is 15.8 µM; in assay [8], 5.86 µM; in assay [9], 11.7 µM; in assay [10], over 35.8 µM.

On to `CCN(CC)CCC(CNc1c(C)cnc2cc(Cl)ccc12)c1ccc(Cl)cc1` (centres undefined), for which the GI50 in assay [1] was 4.39 µM; in assay [2], 1.73 µM; in assay [3], 4.43 µM; in assay [5], 11 µM; in assay [6] it was 10 µM; in assay [8], 12.8 µM. For the same compound, the GI50 is 10.3 µM in assay [9] and 10.8 µM in [10]. Also, the TGI in assay [1] was found to be 18.4 µM; in [2] it was 3.18 µM; in [3] it was 17.3 µM; in [5] it was 25.3 µM; in assay [6], 25.2 µM; in assay [8], 26 µM. Also, the figures for the TGI in [9] and in assay [10] were 24.1 µM and 25.5 µM, respectively.

Turning to `O=C(NN1C(=O)CSC1c1ccc(F)cc1)C(O)c1ccccc1` (centres undefined), the GI50 in assay [1] is over 100 µM; in assay [2], over 100 µM; in [3], 93.6 µM; in [4] it was over 100 µM; in assay [5], over 100 µM; in [6], 81.8 µM. Moreover, the GI50 in [7], in [8] and in [10] was over 100 µM throughout. Moreover, the TGI in [1], in assay [2], in [3], in assay [4], in assay [5] and in assay [6] was over 100 µM in each case. Moreover, the TGI in assay [7], in [8] and in assay [10] was over 100 µM each time.

Turning to `Cc1oc2c(c1C(=O)N1CC[C@@H](N)C1)C(=O)c1c(c(O)c3ccccc3c1O)C2=O`, the GI50 in assay [1] is 2.53 µM; in assay [2], 3.97 µM; in [3], 1.39 µM; in [4], 0.421 µM; in assay [5], 2.98 µM; in [6], 0.308 µM. In addition, the GI50 is 1.06 µM in assay [8], 2.61 µM in assay [9] and 1.25 µM in assay [10]. Further, the TGI is 11.3 µM in assay [1]; 16.5 µM in assay [2]; 4.77 µM in assay [3]; 2.44 µM in [4]; 14.4 µM in [5]; 2.21 µM in assay [6]. For the same compound, the figures for the TGI in [8], in assay [9] and in assay [10] were 15.5 µM, 12.2 µM and 4.65 µM, respectively.

Regarding `Cc1cc(NC(=O)c2cnc(N3CCN(CCOCCOCCOCCOCCC(=O)N[C@H](C(=O)N4C[C@H](O)C[C@H]4C(=O)N[C@@H](C)c4ccc(-c5scnc5C)cc4)C(C)(C)C)CC3)cn2)c2ncccc2c1`, the GI50 in assay [1] is 1.73 µM; in assay [2] it was 2.36 µM; in [3], 1.96 µM; in assay [4], 12.7 µM; in assay [6] it was 3.37 µM; in [7], 2.81 µM. The GI50 is 6.16 µM in [8], 3.57 µM in assay [9] and 3.38 µM in assay [10]. Also, the TGI in [1] was 3.71 µM; in [2] it was 5.72 µM; in assay [3] it was 6.16 µM; in assay [4], over 100 µM; in [6] it was 11 µM; in [7], 7.97 µM. Moreover, the TGI in assay [8] is over 100 µM; in [9], 15.8 µM; in assay [10] it was over 100 µM.

Values taken from PubChem BioAssay (NCI).
